In one test the target is Nitric oxide synthase 1 (Homo sapiens, UniProt P29475). Description: Concentration required to inhibit neuronal nitric oxide synthase.
Another test concerns the target T1, Nitric oxide synthase 3 (Homo sapiens, UniProt P29474).
T1 sequence (P29474 whole entry): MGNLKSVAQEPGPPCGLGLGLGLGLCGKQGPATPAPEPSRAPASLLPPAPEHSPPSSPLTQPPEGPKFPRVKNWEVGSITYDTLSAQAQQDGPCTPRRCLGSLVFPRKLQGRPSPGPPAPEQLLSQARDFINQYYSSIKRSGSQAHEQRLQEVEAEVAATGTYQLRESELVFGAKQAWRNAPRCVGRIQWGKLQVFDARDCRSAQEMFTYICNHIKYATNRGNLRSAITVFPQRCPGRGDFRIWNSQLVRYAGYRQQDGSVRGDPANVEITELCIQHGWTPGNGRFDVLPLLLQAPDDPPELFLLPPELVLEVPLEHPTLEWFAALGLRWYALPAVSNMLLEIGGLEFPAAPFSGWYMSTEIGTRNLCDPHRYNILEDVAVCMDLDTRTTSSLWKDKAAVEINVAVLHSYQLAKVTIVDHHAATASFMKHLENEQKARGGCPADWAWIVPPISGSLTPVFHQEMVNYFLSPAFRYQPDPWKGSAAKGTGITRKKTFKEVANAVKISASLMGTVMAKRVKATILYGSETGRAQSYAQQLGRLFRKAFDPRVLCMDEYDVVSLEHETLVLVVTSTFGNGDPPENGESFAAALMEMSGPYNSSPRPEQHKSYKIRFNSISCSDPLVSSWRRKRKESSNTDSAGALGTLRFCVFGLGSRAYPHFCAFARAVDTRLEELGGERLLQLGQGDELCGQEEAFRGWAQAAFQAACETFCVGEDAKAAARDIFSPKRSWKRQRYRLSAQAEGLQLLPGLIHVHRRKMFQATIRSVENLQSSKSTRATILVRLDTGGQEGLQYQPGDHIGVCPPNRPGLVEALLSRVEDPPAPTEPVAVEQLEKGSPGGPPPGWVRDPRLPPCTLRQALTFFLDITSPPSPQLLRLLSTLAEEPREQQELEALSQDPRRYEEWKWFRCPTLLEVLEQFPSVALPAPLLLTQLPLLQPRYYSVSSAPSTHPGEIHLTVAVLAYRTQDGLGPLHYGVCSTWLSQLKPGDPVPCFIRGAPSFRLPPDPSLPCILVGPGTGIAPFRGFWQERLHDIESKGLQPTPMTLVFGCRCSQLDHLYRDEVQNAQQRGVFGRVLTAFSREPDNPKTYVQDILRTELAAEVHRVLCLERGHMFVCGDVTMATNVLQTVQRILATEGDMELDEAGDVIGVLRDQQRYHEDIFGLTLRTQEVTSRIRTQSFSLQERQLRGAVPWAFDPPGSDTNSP
Description: In vitro inhibition of endothelial nitric oxide synthase.

Test [1] has as its target Nitric oxide synthase, inducible (Homo sapiens, UniProt P35228). Description: In vitro inhibition of inducible nitric oxide synthase.

Molecules are shown by their SMILES. pIC50: −log10 of the molar value.

For orientation: pIC50 means the negative decadic logarithm of the IC50, by convention in mol/L.

Sequence of Nitric oxide synthase 1 (P29475 whole entry): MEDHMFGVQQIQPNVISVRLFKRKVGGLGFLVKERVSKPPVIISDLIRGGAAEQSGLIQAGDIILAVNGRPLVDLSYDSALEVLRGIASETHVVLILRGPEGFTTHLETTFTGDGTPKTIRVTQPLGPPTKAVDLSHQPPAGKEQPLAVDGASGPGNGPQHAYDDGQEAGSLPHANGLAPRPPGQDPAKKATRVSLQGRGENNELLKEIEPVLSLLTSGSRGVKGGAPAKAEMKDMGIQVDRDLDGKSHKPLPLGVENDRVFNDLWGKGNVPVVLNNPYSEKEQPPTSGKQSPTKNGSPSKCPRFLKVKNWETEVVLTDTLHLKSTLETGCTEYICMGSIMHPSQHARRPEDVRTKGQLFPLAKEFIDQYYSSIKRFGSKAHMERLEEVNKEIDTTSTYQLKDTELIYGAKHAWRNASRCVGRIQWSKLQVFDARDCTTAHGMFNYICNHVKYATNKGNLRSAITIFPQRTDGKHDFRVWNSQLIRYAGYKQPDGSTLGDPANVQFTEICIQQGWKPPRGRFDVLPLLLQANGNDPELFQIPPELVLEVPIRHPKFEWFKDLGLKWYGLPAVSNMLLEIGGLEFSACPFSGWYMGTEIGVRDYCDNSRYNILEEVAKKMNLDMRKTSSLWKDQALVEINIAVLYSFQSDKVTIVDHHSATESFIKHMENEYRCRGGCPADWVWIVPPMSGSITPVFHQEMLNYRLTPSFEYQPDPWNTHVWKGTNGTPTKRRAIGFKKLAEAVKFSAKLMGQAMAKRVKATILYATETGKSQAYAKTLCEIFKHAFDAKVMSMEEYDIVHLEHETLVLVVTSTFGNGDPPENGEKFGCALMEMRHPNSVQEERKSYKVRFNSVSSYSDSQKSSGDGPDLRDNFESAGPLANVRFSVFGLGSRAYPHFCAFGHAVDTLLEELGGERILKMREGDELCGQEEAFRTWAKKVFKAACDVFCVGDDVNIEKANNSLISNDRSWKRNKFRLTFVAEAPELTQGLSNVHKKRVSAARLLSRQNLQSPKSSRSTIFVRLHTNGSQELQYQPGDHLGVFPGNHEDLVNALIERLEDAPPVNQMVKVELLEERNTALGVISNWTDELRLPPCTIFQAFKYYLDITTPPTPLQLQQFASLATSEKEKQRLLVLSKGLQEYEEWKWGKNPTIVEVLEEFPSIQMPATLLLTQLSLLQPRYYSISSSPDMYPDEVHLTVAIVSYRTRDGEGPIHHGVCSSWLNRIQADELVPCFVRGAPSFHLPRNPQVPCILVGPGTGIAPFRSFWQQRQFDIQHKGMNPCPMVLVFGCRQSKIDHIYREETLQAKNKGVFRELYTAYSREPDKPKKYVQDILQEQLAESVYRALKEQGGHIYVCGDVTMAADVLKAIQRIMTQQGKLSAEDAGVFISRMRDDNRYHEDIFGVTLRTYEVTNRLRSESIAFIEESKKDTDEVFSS
Sequence of Nitric oxide synthase, inducible (P35228 whole entry): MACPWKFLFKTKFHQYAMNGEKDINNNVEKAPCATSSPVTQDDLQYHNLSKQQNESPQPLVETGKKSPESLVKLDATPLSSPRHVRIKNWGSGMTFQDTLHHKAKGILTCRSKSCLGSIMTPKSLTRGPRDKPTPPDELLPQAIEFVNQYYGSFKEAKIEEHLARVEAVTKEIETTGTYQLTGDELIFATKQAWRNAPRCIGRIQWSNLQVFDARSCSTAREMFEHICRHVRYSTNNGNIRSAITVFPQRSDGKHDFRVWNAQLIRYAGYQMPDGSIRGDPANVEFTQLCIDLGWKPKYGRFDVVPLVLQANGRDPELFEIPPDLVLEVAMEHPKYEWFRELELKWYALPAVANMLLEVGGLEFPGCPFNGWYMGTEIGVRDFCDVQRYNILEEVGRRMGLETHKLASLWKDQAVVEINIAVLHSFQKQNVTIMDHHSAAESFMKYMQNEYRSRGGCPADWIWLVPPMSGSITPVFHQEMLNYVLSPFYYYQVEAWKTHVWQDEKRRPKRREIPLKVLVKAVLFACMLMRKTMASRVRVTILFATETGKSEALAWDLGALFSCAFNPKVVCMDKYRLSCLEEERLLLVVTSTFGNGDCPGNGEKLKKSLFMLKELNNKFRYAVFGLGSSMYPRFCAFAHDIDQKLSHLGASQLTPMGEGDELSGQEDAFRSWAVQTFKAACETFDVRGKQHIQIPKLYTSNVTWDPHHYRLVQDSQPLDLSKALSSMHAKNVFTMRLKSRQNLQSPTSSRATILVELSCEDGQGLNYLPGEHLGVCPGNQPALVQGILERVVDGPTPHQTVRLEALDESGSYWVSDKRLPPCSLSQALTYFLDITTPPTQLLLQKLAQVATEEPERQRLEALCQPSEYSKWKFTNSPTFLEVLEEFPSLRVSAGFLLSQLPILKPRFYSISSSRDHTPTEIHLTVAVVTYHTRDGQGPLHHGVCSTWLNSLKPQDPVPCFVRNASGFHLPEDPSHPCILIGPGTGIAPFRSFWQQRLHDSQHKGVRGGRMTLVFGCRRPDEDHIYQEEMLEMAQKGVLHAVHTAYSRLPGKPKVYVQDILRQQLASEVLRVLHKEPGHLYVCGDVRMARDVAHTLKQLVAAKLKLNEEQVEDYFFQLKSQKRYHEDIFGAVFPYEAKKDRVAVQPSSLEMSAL

As for `CNC1=Nc2ccccc2[C@H]2CCC[C@@H]12`, the pIC50 on Nitric oxide synthase 1 was < 4.00.

On Nitric oxide synthase 1, `NC1=Nc2ccccc2N2CCCC12` (stereo unspecified) had a negative logarithm of the IC50 (pIC50) of 5.48.

Consider `Cc1ccc2c(c1)N=C(N)[C@@H]1CCC[C@H]21`, for which the pIC50 against Nitric oxide synthase 3 was 5.21; in test [1], 5.96; against Nitric oxide synthase 1, 6.72.

Regarding `NC1=Nc2cc([N+](=O)[O-])ccc2[C@H]2CCC[C@@H]12`, the negative logarithm of the IC50 (pIC50) is 4.92 against Nitric oxide synthase 3, 5.59 in test [1] and 6.51 at Nitric oxide synthase 1.

As to `N#Cc1ccc2c(c1)[C@H]1CCC[C@H]1C(N)=N2`, the pIC50 was 4.27 against Nitric oxide synthase 3, 4.49 in test [1] and 6.19 against Nitric oxide synthase 1.

In turn, `NC1=Nc2ccccc2[C@H]2CCCC[C@@H]12` had a pIC50 against Nitric oxide synthase 1 of 5.17.

For `NC1=Nc2ccccc2[C@H]2COC[C@@H]12`, the values for the pIC50 (against Nitric oxide synthase 3; in test [1]; against Nitric oxide synthase 1) were 6.02, 5.39 and 6.89, respectively.

As to `COC(=O)[C@@H](N)CCCNC(=N)N[N+](=O)[O-]` [L-NAME], the pIC50 at Nitric oxide synthase 3 is 5.82; in test [1], 5.10; on Nitric oxide synthase 1, 5.80.

As for `NC1=Nc2c(F)cccc2[C@H]2CCC[C@@H]12`, the pIC50 at Nitric oxide synthase 3 is 5.24; in test [1], 5.64; at Nitric oxide synthase 1, 6.77.

With `NC1=Nc2cc(F)ccc2[C@H]2CCC[C@@H]12`, the pIC50 was 5.64 against Nitric oxide synthase 3, 5.96 in test [1] and 6.89 against Nitric oxide synthase 1.

Take `Cc1ccc2c(c1)[C@H]1CCC[C@H]1C(N)=N2`: the pIC50 against Nitric oxide synthase 3 is 4.68; in test [1] it was 4.92; against Nitric oxide synthase 1 it was 6.30.

Regarding `NC1=Nc2ccccc2[C@H]2CCCCC[C@@H]12`, the pIC50 on Nitric oxide synthase 1 is 4.00.

With `NC1=Nc2ccc(F)cc2[C@H]2CCC[C@@H]12`, the pIC50 was 5.64 against Nitric oxide synthase 3, 5.77 in test [1] and 6.96 on Nitric oxide synthase 1.

For `NC1=Nc2ccc(Br)cc2[C@H]2CCC[C@@H]12`, the figures for the pIC50 (on Nitric oxide synthase 3; in test [1]; against Nitric oxide synthase 1) were 4.77, 4.85 and 6.51, respectively.

`NC1=Nc2c(F)cc(Cl)cc2[C@H]2CCC[C@@H]12`: the pIC50 is 4.14 against Nitric oxide synthase 3, 4.46 in test [1] and 6.14 against Nitric oxide synthase 1.

Take `NC1=Nc2ccc(Cl)cc2[C@H]2CCC[C@@H]12`: the pIC50 on Nitric oxide synthase 3 is 5.21; in test [1], 5.24; against Nitric oxide synthase 1, 6.85.

Consider `c1ccc2c(c1)NC[C@@H]1CCC[C@H]21`, for which the pIC50 against Nitric oxide synthase 1 was < 3.70.

On to `COc1ccc2c(c1)[C@H]1CCC[C@H]1C(N)=N2`, for which the pIC50 against Nitric oxide synthase 3 is 4.62; in test [1], 4.89; at Nitric oxide synthase 1, 6.19.

Turning to `NC1=Nc2c(ccc(F)c2F)[C@H]2CCC[C@@H]12`, the pIC50 on Nitric oxide synthase 3 is 4.70; in test [1], 5.29; at Nitric oxide synthase 1 it was 6.17.

Consider `NC1=Nc2c(Cl)cc(Cl)cc2[C@H]2CCC[C@@H]12`, for which the results for the pIC50 (against Nitric oxide synthase 3; in test [1]; against Nitric oxide synthase 1) were < 3.70, 4.52 and 5.39, respectively.

With `NC1=Nc2ccc(C(F)(F)F)cc2[C@H]2CCC[C@@H]12`, the pIC50 against Nitric oxide synthase 3 is 4.24; in test [1], 4.05; at Nitric oxide synthase 1, 5.80.

Take `NC1=Nc2ccc([N+](=O)[O-])cc2[C@H]2CCC[C@@H]12`: the pIC50 was 4.47 against Nitric oxide synthase 3, 4.82 in test [1] and 6.60 at Nitric oxide synthase 1.

Consider `NC1=Nc2ccccc2[C@H]2CCC[C@@H]12`, for which the pIC50 at Nitric oxide synthase 3 is 5.48; in test [1], 5.57; at Nitric oxide synthase 1 it was 6.80.

Take `NC1=Nc2c(cc(Cl)c(F)c2F)[C@H]2CCC[C@@H]12`: the pIC50 was < 3.70 at Nitric oxide synthase 3, 4.11 in test [1] and 5.68 against Nitric oxide synthase 1.

In the case of `COc1ccc2c(c1)N=C(N)[C@@H]1CCC[C@H]21`, the values for the pIC50 (on Nitric oxide synthase 3; in test [1]; against Nitric oxide synthase 1) were 5.39, 5.85 and 6.62, respectively.

With `ONC1=Nc2ccccc2[C@H]2CCC[C@@H]12`, the pIC50 against Nitric oxide synthase 1 is < 4.00.

The values are drawn from ChEMBL document CHEMBL1135323, “Dihydroquinolines as novel n-NOS inhibitors” (Bioorg Med Chem Lett, 2002).
